According to article PMC6271944 (Molecules, 2014):

Key:
CYP1A2 = molecular target: T1, CYP1A2 (Homo sapiens, UniProt P05177); experiment: CYP inhibition in human liver microsomes, substrate cocktail, LC-MS/MS (phenacetin); assay type: in vitro ADME; settings: metabolite acetaminophen, read-out: IC50 for HLM, CYP1A2
T1 construct: Pooled human liver microsomes (HLM, LOT 32556) were purchased from BD Gentest Corporation; tissue BD Gentest Corporation LOT 32556; host or cells: pooled human liver microsomes
T1 sequence (P05177 1-516): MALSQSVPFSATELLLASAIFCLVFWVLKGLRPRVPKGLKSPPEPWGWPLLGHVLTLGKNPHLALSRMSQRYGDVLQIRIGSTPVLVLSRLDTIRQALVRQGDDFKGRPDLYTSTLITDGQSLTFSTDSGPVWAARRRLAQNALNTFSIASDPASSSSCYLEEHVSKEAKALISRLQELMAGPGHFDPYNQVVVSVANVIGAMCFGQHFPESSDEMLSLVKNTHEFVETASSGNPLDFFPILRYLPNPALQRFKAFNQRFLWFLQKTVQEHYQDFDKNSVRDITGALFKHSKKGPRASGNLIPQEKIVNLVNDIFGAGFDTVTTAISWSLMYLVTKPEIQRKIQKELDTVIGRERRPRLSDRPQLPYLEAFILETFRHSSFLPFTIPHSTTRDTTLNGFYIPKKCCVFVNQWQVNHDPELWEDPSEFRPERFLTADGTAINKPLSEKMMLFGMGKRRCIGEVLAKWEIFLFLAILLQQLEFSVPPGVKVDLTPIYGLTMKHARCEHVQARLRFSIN
Source text: (§1) Positive controls (furafyline for CYP1A2, montelukast for CYP2C8, sulfaphenazole for CYP2C9, S-(+)-N-3-benzylnirvanol for CYP2C19, quinidine for CYP2D6, ketoconazole for CYP3A4) and specific substrates (phenacetin for CYP1A2, paclitaxel for CYP2C8, diclofenac for CYP2C9, S-mephenytoin for CYP2C19, dextromethorphan for CYP2D6, midazolam for CYP3A4) are consistent with our previous papers. The substrates were used at concentrations approximately equal to their respective Michaelis-Menten constant (Km) values: 10 μM phenacetin, 5 μM paclitaxel, 5 μM diclofenac, 200 μM S-mephenytoin, 5 μM dextromethorphan, and 2 μM midazolam. NADP^+ was added after a 15 min preincubation of all other components at 37 °C. After a given incubation time (30 min), the reactions were terminated by addition of 60 μL ice-cold acetonitrile containing gemfibrozil and buspirone as internal standards. Incubation samples were stored at −80 °C until used in liquid chromatography-tandem mass spectrometry (LC-MS/MS) analysis. The mixture was centrifuged at 3,500 rpm for 5 min. The supernatant was mixed with equal volume of a 1:1 mixture of methanol and water and 20 μL of the final mixture was used for LC-MS/ MS analysis. […]
(§2) The CYP inhibition potential were evaluated by measuring the formation of one or more metabolites of the test substrates. […]

UGT1A9 = system: UGT1A9; parameters: dose or concentration left out as unconfirmed; settings: cited from earlier work
CYP2C9 = molecular target: T2, CYP2C9 (Homo sapiens, UniProt P11712); experiment: CYP inhibition in human liver microsomes, substrate cocktail, LC-MS/MS (diclofenac); assay type: in vitro ADME; settings: metabolite 4-hydroxydiclofenac, read-out: IC50 for HLM, CYP2C9
T2 construct: Pooled human liver microsomes (HLM, LOT 32556) were purchased from BD Gentest Corporation; tissue BD Gentest Corporation LOT 32556; host or cells: pooled human liver microsomes
T2 sequence (P11712 whole entry): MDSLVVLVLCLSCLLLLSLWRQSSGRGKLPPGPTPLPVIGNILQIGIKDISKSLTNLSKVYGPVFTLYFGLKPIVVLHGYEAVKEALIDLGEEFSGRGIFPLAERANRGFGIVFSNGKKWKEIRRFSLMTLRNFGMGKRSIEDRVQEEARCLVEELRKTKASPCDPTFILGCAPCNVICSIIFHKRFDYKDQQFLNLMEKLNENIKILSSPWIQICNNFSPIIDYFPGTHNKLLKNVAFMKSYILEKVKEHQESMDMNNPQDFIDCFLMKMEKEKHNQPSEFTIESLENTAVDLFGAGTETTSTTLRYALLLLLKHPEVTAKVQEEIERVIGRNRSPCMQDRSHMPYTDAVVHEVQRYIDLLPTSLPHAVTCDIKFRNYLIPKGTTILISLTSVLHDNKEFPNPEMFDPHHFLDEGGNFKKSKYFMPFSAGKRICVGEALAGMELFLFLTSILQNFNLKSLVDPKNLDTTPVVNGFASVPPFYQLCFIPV
Source text: as §1, §2

CYP2D6 = molecular target: T3, CYP2D6 (Homo sapiens, UniProt P10635); experiment: CYP inhibition in human liver microsomes, substrate cocktail, LC-MS/MS (dextromethorphan); assay type: in vitro ADME; settings: metabolite dextrorphan, read-out: IC50 for HLM, CYP2D6
T3 construct: Pooled human liver microsomes (HLM, LOT 32556) were purchased from BD Gentest Corporation; tissue BD Gentest Corporation LOT 32556; host or cells: pooled human liver microsomes
T3 sequence (P10635 whole entry): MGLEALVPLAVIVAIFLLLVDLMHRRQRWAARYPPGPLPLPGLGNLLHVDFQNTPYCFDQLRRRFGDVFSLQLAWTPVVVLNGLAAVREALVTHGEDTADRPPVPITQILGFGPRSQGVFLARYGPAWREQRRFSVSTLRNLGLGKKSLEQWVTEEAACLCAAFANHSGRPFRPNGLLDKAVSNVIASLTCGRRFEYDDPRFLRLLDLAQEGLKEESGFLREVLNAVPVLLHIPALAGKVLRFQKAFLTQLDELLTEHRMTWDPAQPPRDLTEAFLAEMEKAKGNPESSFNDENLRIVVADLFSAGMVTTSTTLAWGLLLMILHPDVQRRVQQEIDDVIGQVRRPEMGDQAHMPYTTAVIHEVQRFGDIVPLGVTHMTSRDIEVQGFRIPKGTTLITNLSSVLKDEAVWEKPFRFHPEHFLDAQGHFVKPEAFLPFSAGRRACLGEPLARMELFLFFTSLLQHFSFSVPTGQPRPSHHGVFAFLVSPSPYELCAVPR
Source text: as §1, §2

CYP2D4 = molecular target: T4, CYP2D4 (Rattus norvegicus, UniProt Q64680); experiment: CYP inhibition in rat liver microsomes, substrate cocktail, LC-MS/MS (dextromethorphan); assay type: in vitro ADME; settings: pH 7.4, probe dextromethorphan 5 μM, read-out: IC50 for RLM, CYP2D4 (table row CYP2D6)
T4 sequence (Q64680 1-500): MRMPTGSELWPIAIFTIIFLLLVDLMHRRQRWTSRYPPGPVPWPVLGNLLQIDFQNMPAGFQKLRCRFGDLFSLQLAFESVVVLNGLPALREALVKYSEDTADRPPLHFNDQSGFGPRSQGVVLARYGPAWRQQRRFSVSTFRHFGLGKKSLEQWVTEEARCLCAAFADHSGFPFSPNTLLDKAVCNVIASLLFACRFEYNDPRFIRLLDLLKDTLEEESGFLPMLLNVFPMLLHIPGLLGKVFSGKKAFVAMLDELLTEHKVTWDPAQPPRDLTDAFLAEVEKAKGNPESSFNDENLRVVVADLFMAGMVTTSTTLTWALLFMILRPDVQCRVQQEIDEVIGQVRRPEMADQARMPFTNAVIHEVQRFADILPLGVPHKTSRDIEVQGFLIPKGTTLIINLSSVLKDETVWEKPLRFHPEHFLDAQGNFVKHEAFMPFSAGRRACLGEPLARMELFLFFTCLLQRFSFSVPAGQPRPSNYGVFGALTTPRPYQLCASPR
Source text: as §1, §2

WM-266-4 cells = experiment: Cytotoxicity on WM-266-4 cells; assay type: cell-based, human; settings: even at highest concentration
UGT2B7 = system: UGT2B7; parameters: dose or concentration left out as unconfirmed; settings: cited from earlier work
rat CYP1A2 = settings: cited from earlier work

In the case of `O=C(O)[C@H]1O[C@@H](Oc2cc3oc(-c4ccc(O)cc4)cc(=O)c3c(O)c2O)[C@H](O)[C@@H](O)[C@@H]1O` [scutellarin, Scutellarin], the IC50 (CYP1A2) is given as over 100 µM, the “inhibition towards the activity of UGT1A9” value (UGT1A9) is given as 36.1% and the IC50 (CYP2C9) is given as over 100 µM. The IC50 (CYP2D6) was over 100 µM, the IC50 at 30 min (CYP2D4) was over 100 µM and the “cytotoxicity on WM-266-4 cells” value (WM-266-4 cells) was “does not show cytotoxicity”. The “inhibition towards the activity of UGT2B7” value (UGT2B7) was 73.8%, the IC50 (rat CYP1A2; in vitro experiments) was 108.2 ± 0.657 µM and the Ki (rat CYP1A2; weak mixed-type inhibition, read-out: Ki against the activity of CYP1A2) was 95.2 µM.
